According to patent US20080038220A1 (LABORATOIRES BESINS INTERNATIONAL, priority 2004, published 2008):
In brackets after ≈: the same amount, converted by molar mass. Read-outs that look alike come from different tables or passages of the source.

How the values were obtained:
[1] = biological target: T1, sex hormone binding globulin, albumin (Homo sapiens, UniProt P04278); details: cited from earlier work
T1 sequence (P04278 30-402): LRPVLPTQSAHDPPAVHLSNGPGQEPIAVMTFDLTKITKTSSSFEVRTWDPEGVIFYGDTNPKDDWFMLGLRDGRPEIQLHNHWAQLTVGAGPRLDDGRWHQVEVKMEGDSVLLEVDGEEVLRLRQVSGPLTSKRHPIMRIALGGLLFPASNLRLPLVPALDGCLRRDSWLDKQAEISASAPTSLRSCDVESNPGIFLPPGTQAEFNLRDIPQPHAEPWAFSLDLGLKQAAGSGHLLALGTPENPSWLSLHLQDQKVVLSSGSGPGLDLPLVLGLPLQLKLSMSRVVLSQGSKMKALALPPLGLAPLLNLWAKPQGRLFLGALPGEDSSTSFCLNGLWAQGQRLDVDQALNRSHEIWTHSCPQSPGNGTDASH

[2] = biological target: sex hormone binding globulin, albumin (Homo sapiens, UniProt P02768); details: cited from earlier work
[3] = test system: sex hormone binding globulin, albumin; details: cited from earlier work
[4] = Testosterone solubility by the increment method; format: physicochemical; details: thermodynamic from solid
Protocol: A known amount of solvent (2 mL) is stirred at 37° C. in a closed Erlenmeyer.

Chain of sex hormone binding globulin, albumin (Homo sapiens, UniProt P02768) (P02768 25-609): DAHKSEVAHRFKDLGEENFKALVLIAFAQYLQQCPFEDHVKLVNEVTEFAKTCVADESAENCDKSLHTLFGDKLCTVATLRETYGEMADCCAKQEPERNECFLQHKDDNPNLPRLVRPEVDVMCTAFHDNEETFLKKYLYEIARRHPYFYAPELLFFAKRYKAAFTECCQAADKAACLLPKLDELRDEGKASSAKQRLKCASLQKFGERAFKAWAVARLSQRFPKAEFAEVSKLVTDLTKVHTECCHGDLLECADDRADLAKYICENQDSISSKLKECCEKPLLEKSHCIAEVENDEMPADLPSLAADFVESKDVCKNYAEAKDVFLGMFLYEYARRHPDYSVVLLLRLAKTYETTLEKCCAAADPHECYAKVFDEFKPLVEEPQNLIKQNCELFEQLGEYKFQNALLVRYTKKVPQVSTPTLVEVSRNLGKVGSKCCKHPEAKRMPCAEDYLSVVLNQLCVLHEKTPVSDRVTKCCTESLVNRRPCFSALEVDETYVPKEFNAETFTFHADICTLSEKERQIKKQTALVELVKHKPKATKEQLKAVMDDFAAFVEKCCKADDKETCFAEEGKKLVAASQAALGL

C[C@]12CC[C@H]3[C@@H](CCC4=CC(=O)CC[C@@]43C)[C@@H]1CC[C@@H]2O [Testosterone]
share of the binding to sex hormone binding globulin ([1]; men): approximately 40% | share of the binding to sex hormone binding globulin ([1]; women): approximately 66% | share bound weakly to albumin ([2]; men): 60% | share bound weakly to albumin ([2]; women): 34% | bound to protein in the blood ([3]; men): 98% | bound to protein in the blood ([3]; women): 98% | solubility ([4]; aqueous with cosolvent or surfactant or cyclodextrin, water/ethanol mixture, 95% ethanol (v/v) 63/37, 37° C.): 30 mg/mL (≈ 104 mM) | solubility ([4]; aqueous with cosolvent or surfactant or cyclodextrin, water/ethanol mixture, 95% ethanol (v/v) 74/26, 37° C.): 52 mg/mL (≈ 180 mM) | solubility ([4]; aqueous with cosolvent or surfactant or cyclodextrin, water/ethanol mixture, 95% ethanol (v/v) 84/16, 37° C.): 120 mg/mL (≈ 416 mM) | solubility ([4]; aqueous with cosolvent or surfactant or cyclodextrin, water/ethanol mixture, 95% ethanol (v/v) 86/14, 37° C.): 160 mg/mL (≈ 555 mM) | solubility ([4]; oleic acid (OA) 100%, oil or lipid, solvent OA (100%), 37° C.): 66 mg/mL (≈ 229 mM) | solubility ([4]; organic solvent or mixture, solvent Transcutol (100%), 37° C.): 140 mg/mL (≈ 485 mM) | solubility ([4]; organic solvent or mixture, water/ethanol mixture, 95% ethanol (v/v) 100/0, 37° C.): 340 mg/mL (≈ 1180 mM) | solubility ([4]; propylene glycol (PG) 100%, organic solvent or mixture, solvent PG (100%), 37° C.): 86 mg/mL (≈ 298 mM) | solubility ([4]; propylene glycol dipelargonate (PGDP) 100%, oil or lipid, solvent PGDP (100%), 37° C.): 18 mg/mL (≈ 62.4 mM) | solubility ([4]; propylene glycol/oleic acid (PG/OA) 50/50, organic solvent or mixture, solvent PG/OA (50/50), 37° C.): 79 mg/mL (≈ 274 mM)
